Test results from US20240018105A1, “TROPOLONE DERIVATIVES AND TAUTOMERS THEREOF FOR IRON REGULATION IN ANIMALS” (Kinesid Therapeutics, Inc., priority 2019, published 2024).

Key:
[1] = tested on: DMT1-deficient Caco-2 cells; experiment: shDMT1-Caco2 55Fe transport assay; type: cell-based; conditions: Caco-2
Description: Assay 2: shDMT1-Caco2 ^55Fe Transport Assay to Assess Ligand Ability in Transporting Fe (III)
Cells: DMT1-deficient Caco-2 cells (alias: “shDMT1,” or “4A” cells) were from Grillo et al. Science, 2017, and were cryopreserved in liquid nitrogen prior to use.
Reagents and supplies: ^55FeCl3 was obtained from PerkinElmer (Boston, MA). Iron(III) chloride (FeCl3) hexahydrate was obtained from Sigma. Dulbecco's Modified Eagle Medium (DMEM), fetal bovine serum (FBS), L-glutamine, MEM nonessential amino acids, penicillin-streptomycin, G418, formic acid, methanol, high-purity water, ammonium formate, dimethyl sulfoxide (DMSO) were purchased from Fisher Scientific. Propranolol, atenolol and carbutamide were obtained from Sigma-Aldrich Chemical Company (St Louis, MO). Scintillation cocktail was obtained from Research Product International Co. (Mount Prospect, IL). Stericup filter system (PES membrane, 0.22 um pore size) was purchased from Fisher Scientific. Coming item #3378 24-well transwell insert plates. Test articles: known compounds hinokitiol and deferiprone were purchased from Sigma. They are tested side by side with the small molecule ligands disclosed in this application. DMSO stocks (10 mM, which is 1,000× of the 10 μM dose level) of hinokitiol or test articles were prepared. A stock solution of 25 mM deferiprone in DMSO was prepared. The DMSO stock solutions were stored at −20° C. or below when not in use.
The growth medium was prepared according to the following table
Apical media (serum free DMEM, 10 mM MES, pH 6.5) was prepared. Apical master mix media was prepared fresh with the addition of 200 nM ^55Fe before each experiment. For the negative control propranolol and atenolol wells, 200 nM of non-radioactive iron was used.
The basolateral media was serum-free DMEM, 10 mM HEPES, 2% bovine serum albumin (BSA), pH 7.4.
For each experiment, cells were seeded into the 24-well transwell plates (0.5 mL of 50,000 cells/mL) with growth media. The basolateral companion plate was loaded with 1 mL of growth media. After 12-24 hr, both the apical and basolateral chamber were replaced with growth media. The apical media was changed 3× per week for 21-28 days, including a media change exactly 48 hr before the assay date.
On the assay day, the TEER values were measured and the average TEER values was obtained. Individual wells with TEER vaule >35% lower than the average of all wells were excluded. For the qualified wells, the apical layer (twice) and basolaterial (once) chambers were washed with PBS. The basolateral companion plate was then filled with 1 mL of basolateral media. Via addition down the side-wall of the apical well, 300 μL per well of the apical assay master mix, with the indicated dose level of test article, was added. Each dose was tested in triplicate. The plates were incubated (5% CO2 and 90% humidity at 37° C.) for the indicated timepoints. At each indicated timepoint, the basolateral supernatant was gently mixed via pipetting, and 200 μL of the basolateral supernatant was transferred to scintillation vials. To each scintillation counting vial, 5 mL of scintillation cocktail fluid was added. For each scintillation vial, the radioactivity (CPM) was determined with liquid scintillation counter LS6500. The counting time per vial was 5 min.
All raw CPM values are divided by the average value of blank DMSO solution to give a fold of change above the DMSO value. The mean and standard deviation of each compound at each concentration level and at each time point measured was calculated to give the fold change (fc) value.
For rank order compounds, the fc value of a ligand at 4 h time point is further divided by the fold change (fc) value of hinokitiol (a positive control compound) at an equimolar concentration to arrive at the FC (normalized fold of change) value. Data reported in Tables 1 and 2 is 4 hr time point FC=fc-ligand @ 3 uM/fc-hino @ 3 uM, and FC hino=1.

[2] = Ligand facilitated Fe(III) efflux from liposomes; conditions: 10 uM ligand concentration
Experimental: Assay 1: Ligand Facilitated Fe(III) Efflux from Liposomes Preparation of POPC (1-palmitoyl-2-oleoyl-sn-glycero-3-phosphocholine): Cholesterol Liposomes:
A 1M buffer solution of MES and Tris was prepared by dissolving 121.14 grams of Tris base and 213.25 grams of MES hydrate in 500 mL of MilliQ water and adjusted to pH7.0 using an […] HCl solution before bringing the total volume of the solution to 1 L. A 500 mM solution of FeCl3 was prepared by dissolving 0.811 grams of anhydrous FeCl3 in 10 mL of a 0.1M H2SO4 aqueous solution. Inside buffer is prepared in a 50 mL falcon tube, which was added with 25 mL of MilliQ water, 1.61 g of sodium citrate, 1.5 mL of the above FeCl3 solution, and 2.5 mL of the 1M MES/Tris HCl buffer (pH=7.0), and finally additional MilliQ H2O to bring to a 50 mL final volume.
Lipid solution is prepared by dissolving 206.9 mg of POPC (1-palmitoyl-2-oleoyl-sn-glycero-3-phosphocholine) and 8.6 mg of cholesterol in 10 mL of ethanol.
The lipids solution and the inside buffer solution are independently loaded into 10 mL luer lock syringes for loading into a virgin cartridge on a Precision Nanosystems NanoAssembler to prepare unilamaller liposomes with the following parameters: 7.5 mL total volume, 1.5:1 mixing ratio of inside buffer:lipids solution, 8 mL/min flow rate, ambient temperature, 0.35 mL start waste, and 0.05 mL of end waste. 7.5 mL of liposomes is harvested for purification on a 6-inch long, 1-inch diameter Sephadex G-50 column wetted in 600 mM sodium ascorbate and 50 mM MES/Tris HCl pH 7.0 buffer. This buffer also serves as the column running buffer. The crude liposome solution is carefully loaded with minimal volume of running buffer above the top of the Sphadex, allowed to enter the matrix, and the column is run with the continued addition of running buffer. The eluting liposomes, observed as a milky and turbid solution, are collected until free iron begins to elute (observed as a deep purple color) and the fractions are pooled for phosphorus quantitation.
Phosphorus content of eluted liposomes was determined by the process outlined below. 10 uL of liposome elution and a running buffer blank are added to a 5 mL glass vial containing 450 uL of a 8.9 M aqueous H2SO4 solution, the mixture is heated to 225° C. for 25 minutes in an aluminum heat block to hydrolyze POPC and cooled for 5 minutes. 200 ul of a 30% hydrogen peroxide aqueous solution is added to each vial and heated to 225° C. for 25 minutes. After cooling, the phosphorus content was determined using an Abcam Phosphate Assay kit, with buffer subtracted phosphorus levels determined against a standard curve of phosphate included in the kit. Liposomes were diluted to 1 mM phosphate in Running Buffer for use in assays after accounting for dilutions made during phospholipid digestion.
Determination of the rate at which a small molecule ligand liberates (transport) Ferric iron from liposomes is performed in clear bottom black 384-well plates on a Spectramax i3x set to read the absorbance at 562 nm in the kinetic mode every 60 seconds for 120 minutes. 1 uL of serially diluted DMSO stock solution of a small molecule ligand is added to wells in triplicate to give the final concentrations of 40, 20, 10, 5, 2.5, and 1.25 uM of the ligand at 80 μL final volume, followed by addition of 1 μL of 100 mM Ferrozine in water to give a final concentration of 1 mM ferrozine. 78 uL of liposomes diluted to 1 mM phosphorus in running buffer is added to wells as quickly as possible (using a digital repeater mulchannel pipette) with the kinetic read initiated as rapidly as possible after addition of liposomes to all wells. Typically, eight compounds at six concentrations are tested in triplicate simultaneously.
Upon completion of kinetic read, the data for individual reads is fitted to a single phase association regression with the equation Y=(Y0−YMax)^(−kX)+YMax, with Y being the 562 absorbance value and X being time in minutes. […]

Mouse 6-hour PK study = conditions: in vivo
Description: Compounds of the present disclosure were further evaluated in standard in vitro and in vivo Absorption, Distribution, Metabolism, Excretion (ADME) and Drug Metabolism and Pharmacokinetics (DMPK) assays to assess drug profiles important for further drug development.
Such assessments included human and mouse liver microsomal stability assays as well as 6-hour mouse PK studies.

| Structure (SMILES) | Caco2 shDMT1 transport FC @ 3 μM, 4h [1] | Liposome Fe transport kefflux at 10 10 μM ([2]; Table 1) | further results |
| --- | --- | --- | --- |
| O=c1cccc(-c2cnc(N3CCOCC3)nc2)cc1O [Ex.42, 2-hydroxy-4-(2-morpholinopyrimidin-5-yl)cyclohepta-2,4,6-trien-1-one] | 0.01-0.5 | 7.5-10 |  |
| Cc1c(F)cncc1-c1cccc(=O)c(O)c1 [Ex.46, 4-(5-fluoro-4-methylpyridin-3-yl)-2-hydroxycyclohepta-2,4,6-trien-1-one] | 0.01-0.5 | 5-7.5 |  |
| O=c1c(O)ccccc1-c1ccncn1 [Ex.47, 2-hydroxy-7-(pyrimidin-4-yl)cyclohepta-2,4,6-trien-1-one] | 0.01-0.5 | 0.1-5 |  |
| O=C(O)C(F)(F)F.O=c1cccc(-c2ccncn2)cc1O [Ex.48, 2-hydroxy-4-(pyrimidin-4-yl)cyclohepta-2,4,6-trien-1-one] | 0.01-0.5 | 0.1-5 |  |
| O=c1ccc(-c2ccncn2)ccc1O [Ex.49, 2-hydroxy-5-(pyrimidin-4-yl)cyclohepta-2,4,6-trien-1-one] | 0.01-0.5 | 0.1-5 |  |
| O=c1cccc(-c2ccncc2F)cc1O [Ex.50, 4-(3-fluoropyridin-4-yl)-2-hydroxycyclohepta-2,4,6-trien-1-one] | 0.01-0.5 | 0.1-5 |  |
| O=c1ccc(-c2cnccc2F)ccc1O [Ex.51, 5-(4-fluoropyridin-3-yl)-2-hydroxycyclohepta-2,4,6-trien-1-one] | 0.01-0.5 | 5-7.5 |  |
| O=c1cccc(-c2cnccc2F)cc1O [Ex.52, 4-(4-fluoropyridin-3-yl)-2-hydroxycyclohepta-2,4,6-trien-1-one] | 0.01-0.5 | 0.1-5 |  |
| Cc1ncccc1-c1cccc(=O)c(O)c1 [Ex.53, 2-hydroxy-4-(2-methylpyridin-3-yl)cyclohepta-2,4,6-trien-1-one] | 0.01-0.5 | 0.1-5 |  |
| COc1ncccc1-c1cccc(=O)c(O)c1 [Ex.54, 2-hydroxy-4-(2-methoxypyridin-3-yl)cyclohepta-2,4,6-trien-1-one] | 0.01-0.5 | 10-25 |  |
| Cc1cc(-c2cccc(=O)c(O)c2)cnc1N [Ex.56, 4-(6-amino-5-methylpyridin-3-yl)-2-hydroxycyclohepta-2,4,6-trien-1-one] | 0.01-0.5 | 0.1-5 |  |
| Cc1ncc(F)cc1-c1cccc(=O)c(O)c1 [Ex.58, 4-(5-fluoro-2-methylpyridin-3-yl)-2-hydroxycyclohepta-2,4,6-trien-1-one] | 0.01-0.5 | 0.1-5 |  |
| Cc1ncc(-c2ccc(O)c(=O)cc2)cc1F [Ex.59, 5-(5-fluoro-6-methylpyridin-3-yl)-2-hydroxycyclohepta-2,4,6-trien-1-one] | 0.01-0.5 | 5-7.5 |  |
| CC(C)c1ccc(O)c(=O)c(-c2cncc(F)c2)c1 [Ex.61, 2-(5-fluoropyridin-3-yl)-7-hydroxy-4-isopropylcyclohepta-2,4,6-trien-1-one] | 0.01-0.5 | 7.5-10 |  |
| O=c1ccccc(-c2cccc(F)n2)c1O [Ex.69, 3-(6-fluoropyridin-2-yl)-2-hydroxycyclohepta-2,4,6-trien-1-one] | 0.01-0.5 |  | Liposome Fe transport Kefflux at 10 μM ([2]; Table 2): 10-25 |
| O=c1ccccc(-c2cc(F)ccn2)c1O [Ex.70, 3-(4-fluoropyridin-2-yl)-2-hydroxycyclohepta-2,4,6-trien-1-one] | 0.01-0.5 |  | Liposome Fe transport Kefflux at 10 μM ([2]; Table 2): 10-25 |
| O=c1ccccc(-c2cncs2)c1O [Ex.75, 2-hydroxy-3-(thiazol-5-yl)cyclohepta-2,4,6-trien-1-one] | 0.5-1 |  | Liposome Fe transport Kefflux at 10 μM ([2]; Table 2): 0.1-5 |
| O=c1ccccc(-c2cscn2)c1O [Ex.76, 2-hydroxy-3-(thiazol-4-yl)cyclohepta-2,4,6-trien-1-one] | 0.5-1 |  | AUC(0-t) (Mouse 6-hour PK study): 500 to 1500 ng·h/mL; Cmax (Mouse 6-hour PK study): 1500 to 5000 ng/mL; half-life (Mouse 6-hour PK study): < 1.25 h; mouse 6-hour PK properties compared to hinokitiol (Mouse 6-hour PK study): one or more improved mouse 6-hour PK properties compared to hinokitiol |
| Cc1c(O)c(=O)ccn1C [deferiprone, reference compound] | 0.02-0.03 |  | Liposome Fe transport Kefflux at 10 μM ([2]; Table 1): 0 |
